Laboratory results: the supplement of paper PMC10307832

Columns and labels:
Assay in all cases: relative viability (nuclei count vs DMSO), 5 days (fraction); higher = more cells survive
OSI-027 + Luminespib = compound: COc1cccc2cc(-c3nc([C@H]4CC[C@H](C(=O)O)CC4)n4ncnc(N)c34)[nH]c12 [OSI-027] + CCNC(=O)c1noc(-c2cc(C(C)C)c(O)cc2O)c1-c1ccc(CN2CCOCC2)cc1 [Luminespib] (partner 0.01 µM)
Summary of the method: (§1)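 Lung cancer cell lines, seeded in 1536-well plates, were treated the following day by pin tool with a single drug or with five library-drug doses (not always all listed) in √10 steps on top of a fixed anchor-drug dose. Cells were fixed and nuclei stained in one step after 5 days, and nuclei were counted. Relative viability is the nuclei count for treated wells divided by that for vehicle wells, reported as medians of duplicate plates.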

Alpelisib + OSI-027 = compound: Cc1nc(NC(=O)N2CCC[C@H]2C(N)=O)sc1-c1ccnc(C(C)(C)C(F)(F)F)c1 [Alpelisib] + COc1cccc2cc(-c3nc([C@H]4CC[C@H](C(=O)O)CC4)n4ncnc(N)c34)[nH]c12 [OSI-027] (partner 0.5 µM)
Summary of the method: as §1

Vemurafenib + Trametinib = compound: CCCS(=O)(=O)Nc1ccc(F)c(C(=O)c2c[nH]c3ncc(-c4ccc(Cl)cc4)cc23)c1F [Vemurafenib] + CC(=O)Nc1cccc(-n2c(=O)n(C3CC3)c(=O)c3c(Nc4ccc(I)cc4F)n(C)c(=O)c(C)c32)c1 [Trametinib] (partner 0.02 µM)
Summary of the method: as §1

OSI-027 + Pictilisib = compound: COc1cccc2cc(-c3nc([C@H]4CC[C@H](C(=O)O)CC4)n4ncnc(N)c34)[nH]c12 [OSI-027] + CS(=O)(=O)N1CCN(Cc2cc3nc(-c4cccc5[nH]ncc45)nc(N4CCOCC4)c3s2)CC1 [Pictilisib] (partner 1 µM)
Summary of the method: as §1

Cell Line UMC-11 has a relative viability (OSI-027 + Luminespib; first compound 0.01 µM) of 1.04, a relative viability (OSI-027 + Luminespib; first compound 0.03162 µM) of 0.949 and a relative viability (OSI-027 + Luminespib; first compound 0.1 µM) of 0.783. For the same cell line, the relative viability (OSI-027 + Luminespib; first compound 0.3162 µM) was 0.637, the relative viability (OSI-027 + Luminespib; first compound 1 µM) was 0.551 and the relative viability (Alpelisib + OSI-027; first compound 0.04 µM) was 0.473. For the same cell line, the relative viability (Alpelisib + OSI-027; first compound 0.1265 µM) was 0.464, the relative viability (Alpelisib + OSI-027; first compound 0.4 µM) was 0.502 and the relative viability (Alpelisib + OSI-027; first compound 1.265 µM) was 0.438. It also gave a relative viability (Alpelisib + OSI-027; first compound 4 µM) of 0.462, a relative viability (Vemurafenib + Trametinib; first compound 0.03162 µM) of 0.657 and a relative viability (Vemurafenib + Trametinib; first compound 0.1 µM) of 0.756. The relative viability (Vemurafenib + Trametinib; first compound 0.3162 µM) was 0.475, the relative viability (Vemurafenib + Trametinib; first compound 1 µM) was 0.355 and the relative viability (OSI-027 + Pictilisib; first compound 0.01 µM) was 0.739. For the same cell line, the relative viability (OSI-027 + Pictilisib; first compound 0.03162 µM) was 1.03, the relative viability (OSI-027 + Pictilisib; first compound 0.1 µM) was 0.664 and the relative viability (OSI-027 + Pictilisib; first compound 0.3162 µM) was 0.636. It also gave a relative viability (OSI-027 + Pictilisib; first compound 1 µM) of 0.412.
